Results reported in the NIST ThermoML archive (doi:10.1021/acs.jced.7b00241).
Numbers after ± are expanded uncertainties.

Conditions: Liquid; for mass density: 298.15 K, 101.33 kPa, Vibrating tube method; for Normal boiling temperature: Ebulliometric method (Recirculating still)

Row | mass density | Normal boiling temperature | SMILES
1 | 798 ± 0.2 kg/m3 | 107.83 ± 0.2 °C | CC(C)CO [2-methyl-1-propanol]
2 | 866.2 ± 0.2 kg/m3 | 116.8 ± 0.2 °C | CC(=O)OCC(C)C [2-methylpropyl ethanoate]
3 | 1095.5 ± 0.2 kg/m3 | 190.70 ± 0.2 °C | C[S+](C)[O-] [dimethyl sulfoxide]
